Format in all cases: cell-based
The subject of one assay is MIA PaCa-2 cells. Briefly: 72-h cytotoxicity (MTS), MIA PaCa-2. The following applies: MIA PaCa-2, 72-h incubation. Here is the method: (§1) Cells were seeded in wells of a 96-well plate (6000 cells/well) and incubated overnight to allow for cell adherence. On the second day, 100 μL complete medium containing VcMMAE and Sgc8c-M (400, 200, 100, 50, 25, 12.5, and 6.25 nM), as well as MMAE (5, 2.5, 1.25, 0.625, 0.3125, 0.15625, and 0.078125 nM), were added to wells of a 96-well plate for an additional 72-h incubation at 37 °C. At the end of incubation, 100 μL of CellTiter 96® Aqueous One Solution Cell Proliferation Assay (MTS, Promega) solution (prepared by mixing 2 mL MTS with 9 mL of complete medium) were added to each well. The plates were then incubated for an additional 1–2 h to allow for the formation of formazan crystals. The absorbance of each well was measured at 490 nm using a Multi-Mode Microplate Reader (TECAN, SPARK) to assess cell viability. Cell viability was calculated as [OD490 (treatment) - OD490 (blank)]/[OD490 (nontreatment) - OD490 (blank)] × 100%.

In another assay the test system is OVCAR3 cells. The assay is described as follows: 72-h cytotoxicity (MTS), OVCAR3. The following applies: OVCAR3, 72 h. Here is the method: as §1
The subject of another assay is HT-29 cells. Briefly: 72-h cytotoxicity (MTS), HT-29. The following applies: HT-29, 72 h. Here is the method: as §1

pIC50: −log10 of the molar value. Starred links: 1 amine or outer side, 2 acyl side, 3 side chain; linkers in the order of their positions; H or OH if unused. Non-standard residues stand in square brackets, D forms with d. Residues, ends and D or L forms follow the SMILES beside them. *: point of attachment. Dolaproine = CO[C@@H]([C@@H]1CCCN1)[C@@H](C)C(=O)O; Hexanoyl(6-maleimido) = O=C1C=CC(=O)N1CCCCCC(=O)*; Dil = CC[C@H](C)[C@H](NC)[C@@H](CC(=O)O)OC; PABC = O=C(OCc1ccc(N[*:1])cc1)[*:2]; X1 = C[C@@H](N*)[C@@H](O)c1ccccc1; Cit = NC(=O)NCCC[C@H](N)C(=O)O; NMeV = CN[C@H](C(=O)O)C(C)C

Turning to `CC[C@H](C)[C@@H]([C@@H](CC(=O)N1CCC[C@H]1[C@H](OC)[C@@H](C)C(=O)N[C@H](C)[C@@H](O)c1ccccc1)OC)N(C)C(=O)[C@@H](NC(=O)[C@H](C(C)C)N(C)C(=O)OCc1ccc(NC(=O)[C@H](CCCNC(N)=O)NC(=O)[C@@H](NC(=O)CCCCCN2C(=O)C=CC2=O)C(C)C)cc1)C(C)C` [VcMMAE, MC-VC-PAB-MMAE] ({Hexanoyl(6-maleimido)}-V[Cit][PABC][NMeV]V[Dil][Dolaproine]-X1), the results for the pIC50 with MIA PaCa-2 cells, in the assay on OVCAR3 cells and with HT-29 cells were 6.73, 6.98 and 6.69, respectively.
